The target of assay [1] is untagged, full-length human PTPN2 (TC45) (1-387) protein (Homo sapiens (Human), UniProt P17706). In words: Enzymatic assay used to determine potency of PTPN2 inhibitors (DiFMUP substrate). Format: biochemical. The following applies: 0.5 nM PTPN2, 100 μM DiFMUP, 30 min at room temperature. From the text:
Compounds were subsequently added using a Tecan D300e dispenser. […] A four-parameter curve fit was used to determine IC50 values from % inhibition data.

Assay [2] deals with murine B16F10 melanoma cell line. Nature of the assay: B16F10 IFNγ-induced cellular growth inhibition assay (xCELLigence RTCA). Format: cell-based. To be noted: Mus musculus, B16-F10, 48 h; read-out: B16 IFNγ Mediated Growth Inhibition Assay: AVG IC50. Here is the method:
Example B: B16F10 Cellular Growth Inhibition Assay Compound activity was determined using an interferon gamma (IFNγ)-induced cellular growth inhibition assay with the murine B16F10 melanoma cell line on an Agilent xCELLigence Real-Time Cell Analysis platform (RTCA). RTCA E-Plate View 96 plates (Agilent, 300601010) were pre-equilibrated with 50 μL of assay media (DMEM+10% FBS, Gibco 10566-024, Gibco 10082-147) at 37° C. in a humidified incubator before taking an initial measurement of impedance (sweep). B16F10 cells cultured in assay media were dissociated with TrypLE Express (Gibco 12605-010) for five minutes at 37° C., diluted in 3 volumes of assay buffer, centrifuged for 5 minutes at 500×g at room temperature before diluting cells to 7,700 cells/mL in assay media, plating 130 μL/well (1,000 cells/well) in the inner 60 wells of the assay plate, and adding 150 μL of assay media to the outer wells of the plate. Cells were incubated at room temperature for 20 min to allow cells to settle before placing them in the xCELLigence reader and incubating overnight at 37° C., sweeping wells every 15 minutes. After 24 hours, well readings were paused, plates were removed from the incubator and compounds were added using a Tecan D300e dispenser. All wells were normalized to a final concentration of 0.5% DMSO. Following a 30 min incubation at 37° C., recombinant mouse IFNγ (R&D Systems™ 485MI100) was diluted to 10 ng/mL in assay media and 20 μL was added to assay wells (1 ng/mL final concentration). Assay plates were placed in the xCELLigence reader and swept every 15 minutes. After 48 hours, well readings were normalized to the time point immediately preceding compound addition and the area under the growth curve (AUC) was calculated by the RTCA software and exported.

SMILES strings stand for the structures. Where only a bound is given, the exact number is not on record here.

untagged, full-length human PTPN2 (TC45) (1-387) protein, sequence (P17706 other isoform, or with tags, fused parts or gaps): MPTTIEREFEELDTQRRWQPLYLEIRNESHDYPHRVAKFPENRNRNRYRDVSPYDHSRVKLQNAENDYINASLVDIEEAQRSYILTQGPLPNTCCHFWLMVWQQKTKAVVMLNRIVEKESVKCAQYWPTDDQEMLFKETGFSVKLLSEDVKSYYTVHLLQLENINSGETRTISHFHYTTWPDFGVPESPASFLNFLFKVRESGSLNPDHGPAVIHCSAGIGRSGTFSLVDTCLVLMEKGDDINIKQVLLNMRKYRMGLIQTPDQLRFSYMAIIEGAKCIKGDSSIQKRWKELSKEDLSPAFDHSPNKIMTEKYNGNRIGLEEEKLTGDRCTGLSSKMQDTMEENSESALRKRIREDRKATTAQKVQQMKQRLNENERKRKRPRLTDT

By IC50 is commonly meant the concentration at which inhibition is half-maximal. In assay [1], `CNC[C@@H]1CCc2cc(O)c(N3CC(=O)NS3(=O)=O)c(F)c2CC1` (single isomer, unassigned) [Example 24] had an IC50 of 75 nM.

For `CCN[C@@H]1CCc2cc(O)c(N3CC(=O)NS3(=O)=O)c(F)c2CC1` (single isomer, unassigned) [Example 21], the values for the IC50 in assay [1] and in assay [2] were 374 nM and 54000 nM, respectively.

`CC(C)CCCN1CCc2cc(O)c(N3CC(=O)NS3(=O)=O)c(F)c2CC1` [Example 31, 5-(6-fluoro-8-hydroxy-3-(4-methylpentyl)-2,3,4,5-tetrahydro-1H-benzo[d]azepin-7-yl)-1,2,5-thiadiazolidin-3-one 1,1-dioxide]: the IC50 in assay [1] is 1.06 nM; in assay [2], 1730 nM.

For the molecule `CCNC1CCc2cc(O)c(N3CC(=O)NS3(=O)=O)c(F)c2CC1` (stereo not shown) [Example 5], the values for the IC50 in assay [1] and in assay [2] were 17.5 nM and 2490 nM, respectively.

As to `O=C1CN(c2c(O)cc3c(c2F)CC[C@@H](NCCC2CCCC2)CC3)S(=O)(=O)N1` (single isomer, unassigned) [Example 10], the 50% inhibitory concentration (IC50) in assay [1] was 5 nM; in assay [2], 6630 nM.

Take `O=C1CN(c2c(O)cc3c(c2F)CC[C@@H](N2CCCC2)CC3)S(=O)(=O)N1` (single isomer, unassigned) [Example 14]: the IC50 in assay [1] came to 13.6 nM; in assay [2] it was 15200 nM.

For `N[C@@H]1CCc2cc(O)c(N3CC(=O)NS3(=O)=O)c(F)c2CC1` (single isomer, unassigned) [Example 7], the IC50 in assay [1] is 444 nM; in assay [2], more than 100000 nM.

As for `CN(C)[C@H]1CCc2cc(O)c(N3CC(=O)NS3(=O)=O)c(F)c2CC1` (single isomer, unassigned) [Example 18], the IC50 in assay [1] was 879 nM; in assay [2] it was more than 100000 nM.

On to `O=C1CN(c2c(O)cc3c(c2F)CC[C@@H](N2CCC4(CCC4)C2)CC3)S(=O)(=O)N1` (single isomer, unassigned) [Example 16], for which the IC50 in assay [1] is 10.7 nM; in assay [2] it was 6660 nM.

With `CN(C)CCC1CCc2cc(O)c(N3CC(=O)NS3(=O)=O)c(F)c2CC1` (stereo not shown) [Example 33], 21.1 nM corresponded to half-maximal inhibition in assay [1] (IC50).

For the molecule `O=C1CN(c2c(O)cc3c(c2F)CCC(N2CCCC2)CC3)S(=O)(=O)N1` (stereo not shown) [Example 9], the concentration for half-maximal inhibition (IC50) in assay [1] is 21.6 nM; in assay [2] it was 4150 nM.

In the case of `N#CCC1CCc2cc(O)c(N3CC(=O)NS3(=O)=O)c(F)c2CC1` (stereo not shown) [Example 32], the IC50 in assay [1] stood at 46.9 nM; in assay [2] it was 14900 nM.

With `CC(C)CCNC1CCCc2cc(O)c(N3CC(=O)NS3(=O)=O)c(F)c2C1` (stereo not shown) [Example 25, 5-(1-fluoro-3-hydroxy-8-(isopentylamino)-6,7,8,9-tetrahydro-5H-benzo[7]annulen-2-yl)-1,2,5-thiadiazolidin-3-one 1,1-dioxide], the results for the IC50 in assay [1] and in assay [2] were 25.9 nM and 7080 nM, respectively.

As for `CC(C)CCN[C@@H]1CCCc2cc(O)c(N3CC(=O)NS3(=O)=O)c(F)c2C1` (single isomer, unassigned) [Example 27], the results for the IC50 in assay [1] and in assay [2] were 215 nM and more than 71100 nM, respectively.

Consider `CC(C)CCN(C)C1CCCc2cc(O)c(N3CC(=O)NS3(=O)=O)c(F)c2C1` (stereo not shown) [Example 28, 5-(1-fluoro-3-hydroxy-8-(isopentyl(methyl)amino)-6,7,8,9-tetrahydro-5H-benzo[7]annulen-2-yl)-1,2,5-thiadiazolidin-3-one 1,1-dioxide], for which the figures for the IC50 in assay [1] and in assay [2] were 39.9 nM and more than 61200 nM, respectively.

For the molecule `CCN[C@H]1CCc2cc(O)c(N3CC(=O)NS3(=O)=O)c(F)c2CC1` (single isomer, unassigned) [Example 20], the IC50 in assay [1] was 12.7 nM; in assay [2], 4130 nM.

Take `CC(C)CCN[C@H]1CCCc2cc(O)c(N3CC(=O)NS3(=O)=O)c(F)c2C1` (single isomer, unassigned) [Example 26]: the IC50 turned out to be 19.8 nM in assay [1] and 5020 nM in assay [2].

`O=C1CN(c2c(O)cc3c(c2F)CCNCC3)S(=O)(=O)N1` [Example 30, 5-(6-fluoro-8-hydroxy-2,3,4,5-tetrahydro-1H-benzo[d]azepin-7-yl)-1,2,5-thiadiazolidin-3-one 1,1-dioxide]: the IC50 was 2.28 nM in assay [1] and 996 nM in assay [2].

With `CC(C)CCNC1CCc2cc(O)c(N3CC(=O)NS3(=O)=O)c(F)c2CC1` (stereo not shown) [Example 22], the IC50 in assay [1] was 24.5 nM.

`O=C1CN(c2c(O)cc3c(c2F)CCC(O)CC3)S(=O)(=O)N1` (stereo not shown) [Example 8]: the IC50 in assay [1] was 47.3 nM; in assay [2] it was 1590 nM.

As to `O=C1CN(c2c(O)cc3c(c2F)CC[C@H](NCCC2CCCC2)CC3)S(=O)(=O)N1` (single isomer, unassigned) [Example 11], the IC50 was 149 nM in assay [1] and more than 100000 nM in assay [2].

In assay [1], `NCC[C@H]1CCc2cc(O)c(N3CC(=O)NS3(=O)=O)c(F)c2CC1` (single isomer, unassigned) [Example 2] displayed an IC50 of 176 nM.

As for `O=C1CN(c2c(O)cc3c(c2F)CCCCC3)S(=O)(=O)N1` [Example 29, 5-(1-fluoro-3-hydroxy-6,7,8,9-tetrahydro-5H-benzo[7]annulen-2-yl)-1,2,5-thiadiazolidin-3-one 1,1-dioxide], the results for the IC50 in assay [1] and in assay [2] were 109 nM and 13600 nM, respectively.

In assay [1], `NCC[C@@H]1CCc2cc(O)c(N3CC(=O)NS3(=O)=O)c(F)c2CC1` (single isomer, unassigned) [Example 1] came in with an IC50 of 5.07 nM.

On to `O=C1CN(c2c(O)cc3c(c2F)CC[C@H](N2CCCC2)CC3)S(=O)(=O)N1` (single isomer, unassigned) [Example 15], for which the figures for the IC50 in assay [1] and in assay [2] were 79.5 nM and 16800 nM, respectively.

With `O=C1CN(c2c(O)cc3c(c2F)CCC(NC2CCCC2)CC3)S(=O)(=O)N1` (stereo not shown) [Example 12], the IC50 in assay [1] was found to be 19.8 nM; in assay [2], 4060 nM.

In the case of `N[C@H]1CCc2cc(O)c(N3CC(=O)NS3(=O)=O)c(F)c2CC1` (single isomer, unassigned) [Example 6], the results for the IC50 in assay [1] and in assay [2] were 5.67 nM and 1630 nM, respectively.

As for `CNC[C@H]1CCc2cc(O)c(N3CC(=O)NS3(=O)=O)c(F)c2CC1` (single isomer, unassigned) [Example 23], the results for the IC50 in assay [1] and in assay [2] were 2 nM and 2160 nM, respectively.

As to `CN(C)C1CCc2cc(O)c(N3CC(=O)NS3(=O)=O)c(F)c2CC1` (stereo not shown) [Example 4], the results for the IC50 in assay [1] and in assay [2] were 14.9 nM and 2890 nM, respectively.

Take `CNC1CCc2cc(O)c(N3CC(=O)NS3(=O)=O)c(F)c2CC1` (stereo not shown) [Example 3]: the IC50 in assay [1] came out at 16.5 nM; in assay [2], 5140 nM.

Consider `CC(C)(C)NC1CCc2cc(O)c(N3CC(=O)NS3(=O)=O)c(F)c2CC1` (stereo not shown) [Example 13], for which the IC50 in assay [1] was 85.3 nM; in assay [2], more than 100000 nM.

On to `O=C1CN(c2c(O)cc3c(c2F)CC[C@H](N2CCC4(CCC4)C2)CC3)S(=O)(=O)N1` (single isomer, unassigned) [Example 17], for which the IC50 in assay [1] turned out to be 93 nM; in assay [2] it was 13500 nM.

Take `CN(C)[C@@H]1CCc2cc(O)c(N3CC(=O)NS3(=O)=O)c(F)c2CC1` (single isomer, unassigned) [Example 19]: the figures for the 50% inhibitory concentration (IC50) in assay [1] and in assay [2] were 12.4 nM and 2690 nM, respectively.

For the origin of these results see patent publication US20250129032A1 (Nerio Therapeutics, Inc., priority 2022, published 2025).
